Among the data in US9988381B2, “Five-member-heterocycle fused pyridine compounds, method of producing the same, and use thereof” (SHANGHAI INSTITUTE OF MATERIA MEDICA, CHINESE ACADEMY OF …, priority 2013, dated 2018) are inhibition values, retold here.

The structures appear in SMILES notation. Like-named read-outs stand apart in the source and are kept apart here.

The target in test [1] is T1, c-Met kinase domain recombinant protein (Homo sapiens, UniProt P08581).
T1 construct: 50 μL diluted solution of c-Met kinase domain recombinant protein in reaction buffer was added to initiate the reaction
Description: biochemical. The conditions noted are these: read-out: Inhibition rate at 10 μM (%). The method, boiled down:
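ELISA on plates coated with Poly(Glu,Tyr)4:1 (20 μg/mL), kinase reaction with c-Met kinase domain and ATP in HEPES pH 7.4 buffer with MgCl2, MnCl2, Na3VO4 and DTT, 1 h at 37 °C. Phosphotyrosine detected with PY99 and HRP secondary antibody, read at 490 nm; inhibition rate calculated against ATP-free control.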

The target in test [2] is T1, c-Met kinase domain recombinant protein. Description: biochemical. The following applies: for inhibition at 0.1 µM: read-out: Average inhibition rate at 0.1 μM (%); for inhibition at 1 µM: read-out: Average inhibition rate at 1 μM (%); for inhibition at 10 µM: read-out: Average inhibition rate at 10 μM (%). A digest of the protocol:
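ELISA on plates coated with Poly(Glu,Tyr)4:1 (20 μg/mL coating solution). Recombinant c-Met kinase domain reacted with 5 μM ATP in HEPES pH 7.4 with Mg/Mn, vanadate and DTT for 1 hour at 37° C. Phosphotyrosine was detected with PY99 and HRP secondary antibody, read at 490 nm, and IC50 was taken from a four-parameter fit.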

T1 sequence (P08581 1078-1345 limits assumed): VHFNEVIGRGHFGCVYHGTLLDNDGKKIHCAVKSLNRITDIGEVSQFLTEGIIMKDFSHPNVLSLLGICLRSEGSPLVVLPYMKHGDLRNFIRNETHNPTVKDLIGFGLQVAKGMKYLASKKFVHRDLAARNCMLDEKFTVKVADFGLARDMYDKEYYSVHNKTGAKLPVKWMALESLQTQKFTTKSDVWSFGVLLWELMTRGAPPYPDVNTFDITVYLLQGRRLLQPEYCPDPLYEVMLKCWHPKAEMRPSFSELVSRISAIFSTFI

In the case of `Cn1cc(-c2cnc3cnn(S(=O)(=O)c4cnc5ccc(-c6ccc(C(F)(F)F)cc6)cn45)c3c2)cn1` [Example 77, 1-{[6-(4-trifluoromethylphenyl)-imidazo[1,2-a]pyridine]-3-sulfonyl}-6-[(1-methyl)-4-pyrazolyl]-1-H-pyrazolo[4,3-b]pyridine], in test [1], the inhibition – broadly, how much of the control response was suppressed – at 10 µM is > 76.9%. In addition, in test [2], the inhibition at 0.1 µM turned out to be 55.8%, the inhibition at 1 µM was 64.8% and the inhibition at 10 µM worked out at 85.5%.

Consider `Cc1ccc(-c2ccc3ncc(S(=O)(=O)n4ncc5ncc(-c6cnn(C)c6)cc54)n3c2)cc1F` [Example 78, 1-{[6-(3-fluoro-4-methylphenyl)-imidazo[1,2-a]pyridine]-3-sulfonyl}-6-[(1-methyl)-4-pyrazolyl]-1-H-pyrazolo[4,3-b]pyridine], for which, in test [1], the inhibition at 10 µM was > 12.1%. For the same compound, in test [2], the inhibition at 0.1 µM came to 64.5%, the inhibition at 1 µM is 69.3% and the inhibition at 10 µM amounted to 89.3%.

Consider `CC(C)Oc1ccc(-c2ccc3ncc(S(=O)(=O)n4ncc5ncc(-c6cnn(C)c6)cc54)n3c2)cc1` [Example 79], for which the inhibition at 10 µM in test [1] is > 83.1%. For the same compound, in test [2], the inhibition at 1 µM was 30.5% and the inhibition at 10 µM turned out to be 77.4%.

For `CN1CCN(C(=O)c2ccc(-c3ccc4ncc(S(=O)(=O)n5ncc6ncc(-c7cnn(C)c7)cc65)n4c3)cc2)CC1` [Example 80, 1-{[6-[4-(4-methylpiperazine-1-carbonyl)phenyl]-imidazo[1,2-a]pyridine]-3-sulfonyl}-6-[(1-methyl)-4-pyrazolyl]-1-H-pyrazolo[4,3-b]pyridine], in test [1], the inhibition at 10 µM was > 75.3%. Moreover, in test [2], the inhibition at 1 µM was 47.5% and the inhibition at 10 µM was 80.6%.

As for `Cn1cc(-c2cnc3cnn(S(=O)(=O)c4cnc5ccc(-c6cnn(C7CCNCC7)c6)cn45)c3c2)cn1` [Example 82, 1-{[6-([1-(4-piperidinyl)]-4-pyrazolyl)-imidazo[1,2-a]pyridine]-3-sulfonyl}-6-[(1-methyl)-4-pyrazolyl]-1-H-pyrazolo[4,3-b]pyridine chloride], the inhibition at 10 µM in test [1] was > 78.5%. In test [2], the inhibition at 0.1 µM is 54.4%, the inhibition at 1 µM worked out at 63.8% and the inhibition at 10 µM came to 77.7%.

Turning to `Cn1cc(-c2cnc3cnn(S(=O)(=O)c4cnc5ccc(-c6cccc(C(F)(F)F)c6)cn45)c3c2)cn1` [Example 83, 1-{[6-(3-trifluoromethylphenyl)-imidazo[1,2-a]pyridine]-3-sulfonyl}-6-[(1-methyl)-4-pyrazolyl]-1-H-pyrazolo[4,3-b]pyridine], the inhibition at 10 µM in test [1] was > 79.8%. In test [2], the inhibition at 1 µM amounted to 44.4% and the inhibition at 10 µM stood at 77.7%.

Regarding `Cn1cc(-c2cnc3cnn(S(=O)(=O)c4cnc5ccc(-c6ccccc6C(F)(F)F)cn45)c3c2)cn1` [Example 84, 1-{[6-(2-trifluoromethylphenyl)-imidazo[1,2-a]pyridine]-3-sulfonyl}-6-[(1-methyl)-4-pyrazolyl]-1-H-pyrazolo[4,3-b]pyridine], the inhibition at 10 µM in test [1] was > 71.5%. Also, in test [2], the inhibition at 1 µM was determined as 41.2% and the inhibition at 10 µM is 73.5%.

Consider `CN(C)c1ccc(-c2ccc3ncc(S(=O)(=O)n4ncc5ncc(-c6cnn(C)c6)cc54)n3c2)cc1` [Example 85, 1-{[6-(4-dimethylaminophenyl)-imidazo[1,2-a]pyridine]-3-sulfonyl}-6-[(1-methyl)-4-pyrazolyl]-1-H-pyrazolo[4,3-b]pyridine], for which the inhibition at 10 µM in test [1] is > 71.2%; in test [2], 79.4%. The inhibition at 1 µM in test [2] was 30.1%.

For the compound `Cn1cc(-c2cnc3cnn(S(=O)(=O)c4cnc5ccc(-c6cccc(F)c6)cn45)c3c2)cn1` [Example 86, 1-{[6-(3-fluorophenyl)-imidazo[1,2-a]pyridine]-3-sulfonyl}-6-[(1-methyl)-4-pyrazolyl]-1-H-pyrazolo[4,3-b]pyridine], the inhibition at 10 µM in test [1] is > 67.9%. In test [2], the inhibition at 0.1 µM is 45%, the inhibition at 1 µM was 66.6% and the inhibition at 10 µM was determined as 77.8%.
